Measurements published in paper PMC6136576, “Ubiquitin-Mimicking Peptides Transfer Differentiates by E1 and E2 Enzymes” (BioMed Research International, 2018).
Entries after “also recorded” stand apart in the source; their conditions may differ. Marks after values point to notes of the source that are not given here.

Key:
[1] = molecular target: T1, Ube1 (Homo sapiens, UniProt P22314); assay: ATP-PPi exchange assay of Ube1 activation; type: biochemical; settings: for reactivity of free 7mer peptides with Ube1 (ATP-PPi exchange rate): free short peptides, Figure 1, n=3; for Km / kcat / kcat/Km: ATP-PPi exchange catalyzed by Ube1, 0.05 uM Ube1, peptides 10-1000 uM, n=3; for Km: 50 mM Tris-Cl pH7.5, 10 mM MgCl2, 1 mM ATP, 1 mM [32P]pyrophosphate, room temperature; for Km / kcat: Michaelis-Menten fit; for kcat / kcat/Km: pH7.5, room temperature
T1 sequence (P22314 1-1058): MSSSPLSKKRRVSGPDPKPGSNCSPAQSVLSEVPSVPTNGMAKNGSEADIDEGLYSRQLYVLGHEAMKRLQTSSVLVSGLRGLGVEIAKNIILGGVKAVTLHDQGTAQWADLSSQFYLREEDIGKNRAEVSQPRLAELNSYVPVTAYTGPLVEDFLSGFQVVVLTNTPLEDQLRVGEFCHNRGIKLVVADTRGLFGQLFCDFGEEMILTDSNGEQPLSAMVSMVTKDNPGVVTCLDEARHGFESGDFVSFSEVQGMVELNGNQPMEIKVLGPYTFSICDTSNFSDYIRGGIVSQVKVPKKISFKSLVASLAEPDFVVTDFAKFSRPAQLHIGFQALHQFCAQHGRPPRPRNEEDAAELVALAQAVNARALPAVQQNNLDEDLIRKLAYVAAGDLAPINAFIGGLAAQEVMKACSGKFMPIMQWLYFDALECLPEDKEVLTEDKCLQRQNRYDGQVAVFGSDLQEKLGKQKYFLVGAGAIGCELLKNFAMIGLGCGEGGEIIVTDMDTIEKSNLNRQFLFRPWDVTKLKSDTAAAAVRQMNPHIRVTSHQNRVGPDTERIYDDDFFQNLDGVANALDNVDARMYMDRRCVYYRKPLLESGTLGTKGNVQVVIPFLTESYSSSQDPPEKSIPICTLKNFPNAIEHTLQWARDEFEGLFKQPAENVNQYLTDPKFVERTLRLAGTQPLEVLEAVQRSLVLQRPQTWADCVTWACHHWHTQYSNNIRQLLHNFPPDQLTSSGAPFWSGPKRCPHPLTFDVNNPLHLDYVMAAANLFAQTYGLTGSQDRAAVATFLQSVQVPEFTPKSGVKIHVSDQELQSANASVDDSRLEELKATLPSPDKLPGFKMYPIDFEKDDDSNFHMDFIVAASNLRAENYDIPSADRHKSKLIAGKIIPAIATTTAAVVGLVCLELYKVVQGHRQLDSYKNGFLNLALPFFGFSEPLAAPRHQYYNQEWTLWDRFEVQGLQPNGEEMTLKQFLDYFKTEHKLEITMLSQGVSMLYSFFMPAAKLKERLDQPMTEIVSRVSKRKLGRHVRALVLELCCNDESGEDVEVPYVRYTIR
Description: Initial velocity of Ube1-activated peptides either in the free state or on different frames was followed by the ATP-PPi exchange assay. 50 uL reactions were set up containing varying concentrations of peptides, 0.05 uM Ube1, 50 mM Tris-Cl, pH7.5, 10 mM MgCl2, and 1 mM ATP. The reactions were initiated by adding of 1 mM [^32P]pyrophosphate (4.6 Ci/mol). The reactions were incubated at room temperature and quenched at various time points by adding of 0.5 mL of a suspension of activated charcoal (1.6 % (w/v) charcoal, 0.1 M tetrasodium pyrophosphate, and 0.35 M perchloric acid) to each of the reactions. The charcoal was pelleted by centrifugation and each charcoal pellet was washed three times with 1 ml 2 % trichloroacetic acid. Finally the charcoal pellet was resuspended in 0.5 ml water and the suspension was added to 3.5 mL Ultima Gold LSC-cocktail (PerkinElmer). The radioactivity bound to charcoal was determined by liquid scintillation counting. To measure the kinetics of the peptides activation by Ube1, initial velocities of ATP-PPi exchange were determined with concentrations of peptides varying from 10 uM to 1000 uM. The kinetic data were fitted to the Michaelis-Menten equation with the data analysis software Origin.

[2] = test system: E2 and E3; settings: cited from earlier work

Substance	reactivity of free 7mer peptides with Ube1 (ATP-PPi exchange rate) [1]	Km [1]	kcat [1]	kcat/Km [1]	transfer of free peptides to E2 and E3 [2]
ALKERGG [C3, heptamer peptide ALKERGG from Human splicing factor 3A subunit 1 isoform 1]	neither C8, containing Arg but only one Gly, nor C3, which possesses the C-terminal Gly-Gly but with a homologous replacement of Arg to Lys, showed any reactivity toward Ube1				
AGRMLGG [C7, heptamer peptide AGRMLGG from Ubiquitin-like protein fubi and ribosomal protein S30 precursor]	displayed affinity with Ube1 with a similar level of efficiency as P3 and P4; also recorded: highest activity of the three peptides identified in this study	543 ± 122 µM	5.54±1.37^c min^−1	1.01 x10^−2^c μM min^−1	
EPRLCGG [C1, heptamer peptide EPRLCGG from the motif of Human C1orf55]	displayed affinity with Ube1 with a similar level of efficiency as P3 and P4	651 ± 49.3 µM	2.29±0.59^a min^−1	3.52 x10^−3^a μM min^−1	
VLRQLGG [C2, heptamer peptide VLRQLGG from Drosophila homologue of C1orf55]	displayed affinity with Ube1 with a similar level of efficiency as P3 and P4	611 ± 23.1 µM	3.73±0.87^b min^−1	6.10 x10^−3^b μM min^−1	
VLRLRGG [P1, reference compound]	could not be conjugated to Ube1			5.24e-05 µM/min	
IPRDRVG [C8, heptamer peptide IPRDRVG from Ubiquitin-fold modifier 1 (Homo sapiens)]	neither C8, containing Arg but only one Gly, nor C3, which possesses the C-terminal Gly-Gly but with a homologous replacement of Arg to Lys, showed any reactivity toward Ube1				
VYRFYGG [P4, previously reported short peptide VYRFYGG, positive control, reference compound]	showed significant activity with Ube1	251 ± 55.6 µM	13.98 ± 2.08 min⁻¹	0.0557 µM/min	could be transferred to E2 and E3
VQRYWGG [P3, previously reported short peptide VQRYWGG, positive control, reference compound]	showed significant activity with Ube1	476 ± 163 µM	6.68 ± 0.77 min⁻¹	0.014 µM/min	could be transferred to E2 and E3
